Consider 2 substances from US20220280663A1, “[…] TARGETED […] ACTIVE SUBSTANCE OR LABEL […] SYSTEM” (CELLIS AG, priority 2016, published 2022).

For one experiment, the system named is cancer cells. As to the kind of experiment: Transfer of iron binding proteins from loaded leukocytes to co-cultured cancer cells. As to conditions: for transport to cancer cells from granulocytes: loaded granulocytes (FIG. 15); for transport to cancer cells from lymphocytes: loaded lymphocytes (FIG. 16); for transport to cancer cells from macrophages: loaded macrophages, mouse mammary, colon, canine mammary, human breast, pancreatic, bladder cancer cells; for transport to cancer cells from monocytes: loaded monocytes (FIG. 14). The experiment is classed as cell-based. The source says: However, in case of cancer cells the ratio of both cell types is crucial. The more macrophages the better and faster the transport is. The most efficient transfer to the cancer cells was observed when ratio of macrophages to cancer cells was 1:1 or more.
This transfer of compounds conjugated with anticancer drugs made the effect inducing apoptosis in cancer cells (FIG. 6, 13).
However, the ratio of both cell types is important. The more monocytes the better and faster the transport is. The most efficient transfer to the cancer cells was observed when ratio of monocytes to cancer cells was 1:1 or more.
However, the ratio of both cell types is crucial. The more granulocytes the better and faster the transport is. The most efficient transfer to the cancer cells was observed when ratio of granulocytes to cancer cells was 1:1 or more.
However, the ratio of both cell types is crucial. The more lymphocytes the better and faster the transport is. The most efficient transfer to the cancer cells was observed when ratio of lymphocytes to cancer cells was 1:1 or more.

Another experiment concerns CD45^+ leukocyte cell. As to the kind of experiment: Uptake and storage of iron binding proteins by CD45+ leukocyte cells. The experiment is classed as cell-based. The settings on record: incubation 1-4 hours in protein solution (ferritin 0.8 mg/ml; haemoglobin, transferrin 0.1 mg/ml), standard culture conditions. As to the method:
Obtained cells are incubated in ferritin solution for a time and at the concentration sufficient to ensure proper ratio of ferritin/cell for their full load and also to ensure proper drug content to obtain therapeutic effect or contrast for proper imaging. The time and concentration may vary depending on the number of molecules encapsulated/adsorbed into the ferritin cage, status of cell activation, condition and number of their intended administration.
For example, to ensure proper load with ferritins, cells are incubated for 1-4 hours in ferritin solution 0.8 mg/ml in standard culture conditions. The frame of ferritin concentration may vary at least between 0.01 and 4 mg/ml as well as incubation time (5 min-6 hours or more). Adjusting time and concentration of ferritin load to cells, the influence of ferritin and treatment conditions on cell viability should be minded.
Obtained cells are incubated in haemoglobin solution for a time and at the concentration sufficient to ensure proper ratio of haemoglobin/cell for their full load and also to ensure proper drug content to obtain therapeutic effect or contrast for proper imaging. The time and concentration may vary depending on the number of molecules linked with the haemoglobin molecule, status of cell activation, condition and number of their intended administration. […]

As for “haemoglobins: human haemoglobin prepared from fresh red cells (SEQ ID NO: 18 or 22)”, in the experiment on cancer cells, the “transport to cancer cells from granulocytes” value is given as “very easily transport”, the “transport to cancer cells from lymphocytes” value is listed as “very easily transport”, the “transport to cancer cells from macrophages” value is “very easily transport” and the “transport to cancer cells from monocytes” value was “very easily transport”. In addition, in the experiment with CD45^+ leukocyte cell, the “uptake of iron binding protein by cells” value is “very easily uptake”.

With “transferrins: human holo-transferrin purified from serum (SEQ ID NO: 28)”, in the experiment on cancer cells, the “transport to cancer cells from granulocytes” value is on record as “very easily transport”, the “transport to cancer cells from lymphocytes” value is listed as “very easily transport”, the “transport to cancer cells from macrophages” value is given as “very easily transport” and the “transport to cancer cells from monocytes” value is “very easily transport”. Further, the “uptake of iron binding protein by cells” value in the experiment with CD45^+ leukocyte cell is reported as “very easily uptake”.
